Results: ChEMBL document CHEMBL5150067 (J Med Chem, 2022)

How the values were obtained:
[1] = Inhibition of Hedgehog-signalling dependent purmorphamine induced osteoblast differentiation in mouse C3H 10T1/2 cells assessed as residual activity by measuring ALP expression at 10 uM incubated for 96 hrs by CDP-Star luminogenic substrate based assay relative to control; type: functional
[2] = Inhibition of Hedgehog-signalling dependent purmorphamine induced osteoblast differentiation in mouse C3H 10T1/2 cells assessed as reduction in ALP expression incubated for 96 hrs by CDP-Star luminogenic substrate based assay; type: functional, cell-based; settings: C3H 10T1/2, 96 h
[3] = target: T1, Aryl hydrocarbon receptor (Mus musculus, UniProt P30561); experiment: Activation of AhR in purmorphamine-treated mouse C3H 10T1/2 cells assessed as upregulation of Cyp1B1 mRNA levels measured after 96 hrs by RT-qPCR analysis; type: cell-based; settings: c3h 10t1/2, 96 h, DDE = dose-dependent effect, dose 0.001-1 nM
T1 sequence (P30561 whole entry): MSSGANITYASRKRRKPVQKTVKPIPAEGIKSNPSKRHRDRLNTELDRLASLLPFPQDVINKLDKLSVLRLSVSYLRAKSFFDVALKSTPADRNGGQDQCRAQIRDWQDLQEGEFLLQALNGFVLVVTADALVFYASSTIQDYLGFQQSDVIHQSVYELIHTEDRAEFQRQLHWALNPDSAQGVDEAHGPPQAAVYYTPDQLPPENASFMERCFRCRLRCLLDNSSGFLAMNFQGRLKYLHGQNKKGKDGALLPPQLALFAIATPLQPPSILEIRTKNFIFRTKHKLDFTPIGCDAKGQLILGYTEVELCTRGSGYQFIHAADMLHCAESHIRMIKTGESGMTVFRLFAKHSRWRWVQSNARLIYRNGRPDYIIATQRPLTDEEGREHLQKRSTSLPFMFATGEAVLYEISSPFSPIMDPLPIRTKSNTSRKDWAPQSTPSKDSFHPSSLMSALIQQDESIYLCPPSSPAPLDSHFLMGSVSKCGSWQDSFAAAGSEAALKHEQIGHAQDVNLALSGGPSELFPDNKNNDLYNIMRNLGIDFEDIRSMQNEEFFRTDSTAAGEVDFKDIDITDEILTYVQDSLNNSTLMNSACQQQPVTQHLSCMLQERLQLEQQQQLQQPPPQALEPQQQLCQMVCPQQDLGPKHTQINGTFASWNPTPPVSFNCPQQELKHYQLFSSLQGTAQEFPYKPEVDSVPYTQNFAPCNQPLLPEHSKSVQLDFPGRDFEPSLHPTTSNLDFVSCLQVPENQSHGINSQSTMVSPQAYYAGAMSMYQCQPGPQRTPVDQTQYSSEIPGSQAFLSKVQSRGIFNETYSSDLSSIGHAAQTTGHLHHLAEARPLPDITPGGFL

[4] = target: T1, Aryl hydrocarbon receptor; experiment: Activation of AhR in purmorphamine-treated mouse C3H 10T1/2 cells assessed as translocation of AhR from cytoplasm to nucleus at 1 nM incubated for 24 hrs by immunostaining based analysis; type: cell-based; settings: c3h 10t1/2, 24 h, 0.001 µM

| SMILES | Activity [1] | IC50 [2] | also measured |
| --- | --- | --- | --- |
| O=C1c2ccc(Br)cc2C[C@H]2c3ccccc3CCN12 | 44.2% | 4.2 nM | – |
| O=C1c2ccc(Cl)c(F)c2C[C@H]2c3ccccc3CCN12 | 67.2% | – | – |
| Cc1ccc2c(c1)C[C@H]1c3ccccc3CCN1C2=O | 93.2% | – | – |
| COc1ccc2c(c1)C[C@H]1c3ccccc3CCN1C2=O | 114% | – | – |
| O=C1c2cc(Cl)cc(Cl)c2C[C@H]2c3ccccc3CCN12 | 53.2% | – | – |
| O=C1c2ccc(Cl)cc2C[C@H]2c3ccccc3CCN12 | 30.4% | 1.2 nM | – |
| O=C1c2ccc(I)cc2C[C@H]2c3ccccc3CCN12 | 57.8% | – | – |
| CC(C)c1ccc2c(c1)C[C@H]1c3ccccc3CCN1C2=O | 90.1% | – | – |
| O=C1c2ccc(C(F)(F)F)cc2C[C@H]2c3ccccc3CCN12 | 33.1% | 0.7 nM | – |
| O=C1c2ccc(Cl)c(Cl)c2C[C@H]2c3ccccc3CCN12 | 36% | 1.1 nM | – |
| O=C1c2cc(I)c(Cl)cc2C[C@H]2c3ccccc3CCN12 | 30.7% | 0.004 nM | – |
| O=C1c2ccc(F)cc2C[C@H]2c3ccccc3CCN12 | 61.2% | – | – |
| O=C1c2ccccc2C[C@H]2c3ccccc3CCN12 | 100% | – | – |
| O=C1c2cc(Br)c(Cl)cc2C[C@H]2c3ccccc3CCN12 | – | – | Activity [3]: Dde; Activity [4]: Active |
| O=C1c2ccccc2C[C@H]2c3ccccc3CCCN12 | 134% | – | – |
| COc1cc2c(cc1OC)C(=O)N1CCc3cc(OC)c(OC)cc3[C@@H]1C2 | 55.2% | – | – |
| O=C1c2cccc(Cl)c2C[C@H]2c3ccccc3CCN12 | 53% | – | – |
| COc1cc2c(cc1F)CCN1C(=O)c3ccccc3C[C@@H]21 | 127% | – | – |
| O=C1c2ccc(Cl)cc2C[C@@H]2c3ccccc3CCN12 | 27.4% | 850 nM | – |
| COc1cc2c(cc1OC)[C@@H]1Cc3ccccc3C(=O)N1CC2 | 96.5% | – | – |
| O=C1c2cc(Br)c(Cl)c(Br)c2C[C@H]2c3ccccc3CCN12 | 27.9% | 0.36 nM | – |
| COc1cc2c(cc1Cl)C[C@H]1c3ccccc3CCN1C2=O | 13.4% | 0.038 nM | – |
| O=C1c2ccccc2C[C@H]2c3ccccc3CN12 | 29.2% | – | – |
| O=C1c2ccccc2C[C@H]2c3ccc(Cl)cc3CCN12 | 87% | – | – |
